Source: PubChem BioAssay (NCI)
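The compound was tested at five concentrations on cells cultured in 96-well plates, with a 48-hour exposure period. At the GI50, growth is halved. TGI marks complete inhibition of growth.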

What was measured:
Assay in all cases: NCI-60 cell line screen, 48 h
[1] = test system: T-47D breast
[2] = test system: A549 NSCLC
[3] = test system: MALME-3M melanoma
[4] = test system: HCT-116 colon
[5] = test system: A498 renal
[6] = test system: SF-295 CNS
[7] = test system: EKVX NSCLC
[8] = test system: LOX IMVI melanoma
[9] = test system: BT-549 breast
[10] = test system: SW-620 colon
[11] = test system: MDA-MB-468 breast
[12] = test system: SK-MEL-2 melanoma
[13] = test system: MCF7 breast
[14] = test system: HS 578T breast
[15] = test system: K-562 leukemia
[16] = test system: NCI-H23 lung
[17] = test system: RPMI-8226 leukemia
[18] = test system: HL-60(TB) leukemia
[19] = test system: SR leukemia
[20] = test system: NCI/ADR-RES ovarian
[21] = test system: SF-539 CNS
[22] = test system: HOP-92 NSCLC
[23] = test system: SN12C renal
[24] = test system: SNB-75 CNS
[25] = test system: NCI-H460 lung
[26] = test system: ACHN renal
[27] = test system: OVCAR-4 ovarian
[28] = test system: SK-MEL-5 melanoma
[29] = test system: U251 CNS
[30] = test system: SK-MEL-28 melanoma
[31] = test system: OVCAR-8 ovarian
[32] = test system: SF-268 CNS
[33] = test system: CAKI-1 renal
[34] = test system: HOP-62 NSCLC
[35] = test system: DU-145 prostate
[36] = test system: UACC-257 melanoma
[37] = test system: SNB-19 CNS
[38] = test system: NCI-H522 lung
[39] = test system: MDA-MB-231 breast
[40] = test system: CCRF-CEM leukemia
[41] = test system: SK-OV-3 ovarian
[42] = test system: OVCAR-5 ovarian
[43] = test system: HCC-2998 colon
[44] = test system: NCI-H226 lung
[45] = test system: UO-31 renal
[46] = test system: PC-3 prostate
[47] = test system: MDA-MB-435
[48] = test system: HT29 colon
[49] = test system: COLO 205 colon
[50] = test system: 786-0 renal
[51] = test system: UACC-62 melanoma
[52] = test system: KM12 colon
[53] = test system: OVCAR-3 ovarian
[54] = test system: HCT-15 colon
[55] = test system: TK-10 renal
[56] = test system: MOLT-4 leukemia
[57] = test system: IGROV1 ovarian
[58] = test system: M14 melanoma
[59] = test system: RXF 393 renal

CNC(=O)c1cccc(N2CCc3c2ccc(NC(=O)Nc2ccc(N4CCN(C)CC4)c(C(F)(F)F)c2)c3F)c1
GI50 [1]: 6.33 µM
TGI [1]: 19.3 µM
GI50 [2]: 5.75 µM
TGI [2]: 13.9 µM
GI50 [3]: 4.17 µM
TGI [3]: 8.7 µM
GI50 [4]: 5.06 µM
TGI [4]: 13.8 µM
GI50 [5]: 5.36 µM
TGI [5]: 10.4 µM
GI50 [6]: 0.717 µM
TGI [6]: 1.7 µM
GI50 [7]: 5.05 µM
TGI [7]: 10.2 µM
GI50 [8]: 5.15 µM
TGI [8]: 10.3 µM
GI50 [9]: 5.14 µM
TGI [9]: 11.1 µM
GI50 [10]: 1.19 µM
TGI [10]: 5.23 µM
GI50 [11]: 5.41 µM
TGI [11]: 11.3 µM
GI50 [12]: 6.15 µM
TGI [12]: 11.8 µM
GI50 [13]: 4.63 µM
TGI [13]: 10.3 µM
GI50 [14]: 1.46 µM
TGI [14]: 8.54 µM
GI50 [15]: 6.69 µM
TGI [15]: > 36.5 µM
GI50 [16]: 5.97 µM
TGI [16]: 11.8 µM
GI50 [17]: 1.59 µM
TGI [17]: > 36.5 µM
GI50 [18]: 7.63 µM
TGI [18]: 25.7 µM
GI50 [19]: 5.74 µM
TGI [19]: > 36.5 µM
GI50 [20]: 7.02 µM
TGI [20]: 17.5 µM
GI50 [21]: 1.18 µM
TGI [21]: 4.94 µM
GI50 [22]: 5.36 µM
TGI [22]: 11.6 µM
GI50 [23]: 5.81 µM
TGI [23]: 11.1 µM
GI50 [24]: 1.25 µM
TGI [24]: 6.93 µM
GI50 [25]: 5.27 µM
TGI [25]: 11.6 µM
GI50 [26]: 5.61 µM
TGI [26]: 10.5 µM
GI50 [27]: 5.07 µM
TGI [27]: 11.5 µM
GI50 [28]: 5.43 µM
TGI [28]: 10.4 µM
GI50 [29]: 3.73 µM
TGI [29]: 8.59 µM
GI50 [30]: 4.99 µM
TGI [30]: 9.81 µM
GI50 [31]: 7.5 µM
TGI [31]: 16.4 µM
GI50 [32]: 4.87 µM
TGI [32]: 12.3 µM
GI50 [33]: 6.04 µM
TGI [33]: 12 µM
GI50 [34]: 5.23 µM
TGI [34]: 11.9 µM
GI50 [35]: 5.68 µM
TGI [35]: 11.3 µM
GI50 [36]: 6.1 µM
TGI [36]: 12 µM
GI50 [37]: 5.48 µM
TGI [37]: 10.7 µM
GI50 [38]: 6.46 µM
TGI [38]: 13.9 µM
GI50 [39]: 2.93 µM
TGI [39]: 7.59 µM
GI50 [40]: 5.43 µM
TGI [40]: 29.3 µM
GI50 [41]: 5.93 µM
TGI [41]: 11.7 µM
GI50 [42]: 5.45 µM
TGI [42]: 10.3 µM
GI50 [43]: 5.3 µM
TGI [43]: 10.3 µM
GI50 [44]: 6.12 µM
TGI [44]: 14.6 µM
GI50 [45]: 5.86 µM
TGI [45]: 10.8 µM
GI50 [46]: 3.91 µM
TGI [46]: 12.1 µM
GI50 [47]: 5.28 µM
TGI [47]: 10.5 µM
GI50 [48]: 1.44 µM
TGI [48]: 8.51 µM
GI50 [49]: 6.46 µM
TGI [49]: 17.5 µM
GI50 [50]: 1.99 µM
TGI [50]: 8.25 µM
GI50 [51]: 5.9 µM
TGI [51]: 10.8 µM
GI50 [52]: 0.166 µM
TGI [52]: 6.5 µM
GI50 [53]: 5.04 µM
TGI [53]: 11 µM
GI50 [54]: 3.92 µM
TGI [54]: 9.15 µM
GI50 [55]: 6.21 µM
TGI [55]: 11.6 µM
GI50 [56]: 1.7 µM
TGI [56]: 20.9 µM
GI50 [57]: 6.21 µM
TGI [57]: 11.7 µM
GI50 [58]: 6.78 µM
TGI [58]: 14.3 µM
GI50 [59]: 0.976 µM
TGI [59]: 2.65 µM

O=C(c1ccc(OCCN2CCOCC2)cc1)C1[C@H](c2ccc(Cl)cc2)[C@@H](c2ccccc2)NC12C(=O)Nc1ccc(Cl)cc12 (some centres undefined)
GI50 [1]: 13.5 µM
TGI [1]: > 47.3 µM
GI50 [2]: 12.6 µM
TGI [2]: > 47.3 µM
GI50 [3]: 7.11 µM
TGI [3]: 14.3 µM
GI50 [4]: 8.02 µM
TGI [4]: 15.9 µM
GI50 [5]: 8.24 µM
TGI [5]: 23.2 µM
GI50 [6]: 7.41 µM
TGI [6]: 14.4 µM
GI50 [7]: 8.46 µM
TGI [7]: 27.2 µM
GI50 [8]: 7.35 µM
TGI [8]: 13.7 µM
GI50 [9]: 8.58 µM
TGI [9]: 23.5 µM
GI50 [10]: 8.77 µM
TGI [10]: 18.9 µM
GI50 [11]: 7.43 µM
TGI [11]: 20.4 µM
GI50 [12]: 7.85 µM
TGI [12]: 15.7 µM
GI50 [13]: 8.4 µM
TGI [13]: 27.8 µM
GI50 [14]: 7.88 µM
TGI [14]: 21.6 µM
GI50 [15]: 12.8 µM
TGI [15]: > 47.3 µM
GI50 [16]: 8.72 µM
TGI [16]: 18.2 µM
GI50 [17]: 10.3 µM
TGI [17]: 29.9 µM
GI50 [18]: 12 µM
TGI [18]: 34.9 µM
GI50 [20]: 11.1 µM
TGI [20]: 31.2 µM
GI50 [21]: 8 µM
TGI [21]: 15 µM
GI50 [22]: 6.85 µM
TGI [22]: 18.7 µM
GI50 [23]: 6.75 µM
TGI [23]: 13 µM
GI50 [24]: 4.11 µM
TGI [24]: > 47.3 µM
GI50 [25]: 8.9 µM
TGI [25]: 19.1 µM
GI50 [26]: 11.9 µM
TGI [26]: 40.9 µM
GI50 [27]: 11 µM
TGI [27]: 39.2 µM
GI50 [28]: 5.4 µM
TGI [28]: 11.8 µM
GI50 [29]: 7.15 µM
TGI [29]: 14.6 µM
GI50 [30]: 7.8 µM
TGI [30]: 14.6 µM
GI50 [31]: 13.6 µM
TGI [31]: > 47.3 µM
GI50 [32]: 10.6 µM
TGI [32]: > 47.3 µM
GI50 [33]: 8.1 µM
TGI [33]: 39.5 µM
GI50 [34]: 9.46 µM
TGI [34]: 19.5 µM
GI50 [35]: 10.9 µM
TGI [35]: 28.2 µM
GI50 [36]: 9.69 µM
TGI [36]: 34.2 µM
GI50 [37]: 10.6 µM
TGI [37]: 34.9 µM
GI50 [38]: 9.75 µM
TGI [38]: 21.3 µM
GI50 [39]: 7.62 µM
TGI [39]: 14.4 µM
GI50 [40]: 10.6 µM
TGI [40]: 27.1 µM
GI50 [41]: 15.4 µM
TGI [41]: > 47.3 µM
GI50 [42]: 8.98 µM
TGI [42]: 25.4 µM
GI50 [43]: 7.6 µM
TGI [43]: 14.9 µM
GI50 [44]: 8.06 µM
TGI [44]: 19.5 µM
GI50 [45]: 7.25 µM
TGI [45]: 23.7 µM
GI50 [46]: 7.93 µM
TGI [46]: 20.3 µM
GI50 [47]: 7.85 µM
TGI [47]: 15.8 µM
GI50 [48]: 7.49 µM
TGI [48]: 16.7 µM
GI50 [49]: 8.43 µM
TGI [49]: 16.8 µM
GI50 [50]: 8.8 µM
TGI [50]: 19.6 µM
GI50 [51]: 6.42 µM
TGI [51]: 12.8 µM
GI50 [52]: 8.31 µM
TGI [52]: 18.2 µM
GI50 [53]: 8.24 µM
TGI [53]: 20.1 µM
GI50 [54]: 7.53 µM
TGI [54]: 15.9 µM
GI50 [55]: 9.96 µM
TGI [55]: 33.7 µM
GI50 [56]: 7.53 µM
TGI [56]: 27.9 µM
GI50 [57]: 9.58 µM
TGI [57]: 23.9 µM
GI50 [58]: 8.04 µM
TGI [58]: 15.8 µM
GI50 [59]: 6.14 µM
TGI [59]: 13.6 µM
